Measured values from ChEMBL document CHEMBL5352412, “Discovery of 1,2-diphenylethene derivatives as human DNA topoisomerase II catalytic inhibitors and antitumor agents” (Eur J Med Chem, 2022).
Several values for one entry are separate records, joined by “and”; a condition that tells them apart may be missing. Equal values may be shown once. Activity calls are given as the source filed them. The rule behind the calls is not given here.

Experiments:
[1] = system: HepG2; assay: Induction of apoptosis in human HepG2 cells assessed as viable cells at 5 uM incubated for 24 hrs by annexin-V FITC and PI staining based flow cytometry analysis (reference value: 93.8%); type: functional; details: read-out: Activity
[2] = Toxicity in C57BL/6J mouse assessed as animal death at 500 mg/kg administered via gavage twice at day 1 and measured for 7 days; type: organism-based; details: in vivo, po, time 7 day, read-out: Activity
[3] = target: T1, DNA topoisomerase 2-alpha (Homo sapiens, UniProt P11388); assay: Inhibition of human topoisomerase 2-alpha assessed as DNA intercalation at 100 to 200 uM using pBR322 DNA as substrate measured after 30 mins by agarose gel electrophoresis analysis; details: dose 100-200 µM
T1 sequence (P11388 whole entry): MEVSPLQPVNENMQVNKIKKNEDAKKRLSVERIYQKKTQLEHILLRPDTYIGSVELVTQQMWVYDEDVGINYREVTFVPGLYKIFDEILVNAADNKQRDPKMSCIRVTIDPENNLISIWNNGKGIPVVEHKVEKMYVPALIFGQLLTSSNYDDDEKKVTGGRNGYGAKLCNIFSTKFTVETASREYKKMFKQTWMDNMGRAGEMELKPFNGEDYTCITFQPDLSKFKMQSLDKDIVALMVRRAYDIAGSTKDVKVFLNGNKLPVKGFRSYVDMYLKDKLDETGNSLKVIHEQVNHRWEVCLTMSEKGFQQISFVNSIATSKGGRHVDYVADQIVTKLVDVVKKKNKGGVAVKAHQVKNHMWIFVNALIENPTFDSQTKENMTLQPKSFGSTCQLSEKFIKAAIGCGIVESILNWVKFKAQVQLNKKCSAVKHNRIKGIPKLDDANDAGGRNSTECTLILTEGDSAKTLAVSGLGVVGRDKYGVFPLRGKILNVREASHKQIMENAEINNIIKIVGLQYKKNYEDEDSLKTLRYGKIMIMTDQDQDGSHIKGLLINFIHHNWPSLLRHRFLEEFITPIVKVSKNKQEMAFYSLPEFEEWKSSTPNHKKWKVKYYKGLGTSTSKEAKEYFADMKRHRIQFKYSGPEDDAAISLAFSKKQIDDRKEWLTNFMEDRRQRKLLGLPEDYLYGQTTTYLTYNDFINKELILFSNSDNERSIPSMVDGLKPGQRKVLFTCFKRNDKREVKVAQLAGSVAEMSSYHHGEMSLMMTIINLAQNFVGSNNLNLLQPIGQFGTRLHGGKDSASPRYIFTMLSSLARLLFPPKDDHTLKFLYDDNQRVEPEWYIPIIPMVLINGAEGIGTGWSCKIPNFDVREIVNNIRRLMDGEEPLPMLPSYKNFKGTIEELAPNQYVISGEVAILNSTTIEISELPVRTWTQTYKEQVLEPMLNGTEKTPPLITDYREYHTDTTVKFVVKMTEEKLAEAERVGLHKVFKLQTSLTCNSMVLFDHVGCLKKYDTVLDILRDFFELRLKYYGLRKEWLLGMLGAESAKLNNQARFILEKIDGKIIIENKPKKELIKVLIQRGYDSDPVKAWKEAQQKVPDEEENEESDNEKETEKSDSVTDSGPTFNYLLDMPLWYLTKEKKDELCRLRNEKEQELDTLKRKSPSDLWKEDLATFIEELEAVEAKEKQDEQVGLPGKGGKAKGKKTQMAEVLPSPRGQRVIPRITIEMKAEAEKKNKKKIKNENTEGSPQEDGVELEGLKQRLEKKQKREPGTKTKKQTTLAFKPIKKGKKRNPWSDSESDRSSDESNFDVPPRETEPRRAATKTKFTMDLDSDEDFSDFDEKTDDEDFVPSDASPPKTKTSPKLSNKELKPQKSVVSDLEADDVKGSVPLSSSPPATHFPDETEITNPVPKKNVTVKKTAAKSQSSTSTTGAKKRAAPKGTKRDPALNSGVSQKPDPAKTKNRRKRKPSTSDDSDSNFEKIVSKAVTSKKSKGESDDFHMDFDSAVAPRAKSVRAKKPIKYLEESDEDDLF

[4] = system: HeLa; assay: Antiproliferative activity against human HeLa cells incubated for 72 hrs by CCK8 assay; type: functional, cell-based
[5] = target: T1, DNA topoisomerase 2-alpha; assay: Poison activity at human topoisomerase 2-alpha assessed as linear DNA formation at 100 to 200 microM; details: dose 100-200 µM
[6] = system: HepG2; assay: Induction of cell cycle arrest in human HepG2 cells assessed as accumulation of cells at S phase at 1 uM incubated for 24 hrs by PI staining based flow cytometry analysis (reference value: 28.2%); type: functional
[7] = system: HepG2; assay: Induction of cell cycle arrest in human HepG2 cells assessed as accumulation of cells at G2/M phase at 1 uM incubated for 24 hrs by PI staining based flow cytometry analysis (reference value: 17.5%); type: functional
[8] = Antiproliferative activity against human BEAS-2B cells incubated for 72 hrs by CCK8 assay; type: toxicity, cell-based
[9] = system: HepG2; assay: Induction of apoptosis in human HepG2 cells assessed as necrotic cells at 5 uM incubated for 24 hrs by annexin-V FITC and PI staining based flow cytometry analysis (reference value: 0.2%); type: functional
[10] = Toxicity in C57BL/6J mouse assessed as change in body weight at 500 mg/kg administered via gavage twice at day 1 and measured for 7 days; type: organism-based; details: in vivo, po, 168 h, time 7 day
[11] = system: HepG2; assay: Induction of cell cycle arrest in human HepG2 cells assessed as accumulation of cells at G1 phase at 1 uM incubated for 24 hrs by PI staining based flow cytometry analysis (reference value: 54%); type: functional
[12] = system: HCT-116; assay: Antiproliferative activity against human HCT-116 cells incubated for 72 hrs by CCK8 assay; type: functional, cell-based; details: HCT-116, 72 h
[13] = target: T1, DNA topoisomerase 2-alpha; assay: Inhibition of human topoisomerase 2-alpha assessed as reduction in relaxation of pBR322 DNA at 100 uM measured after 30 mins by agarose gel electrophoresis method relative to control
[14] = system: HepG2; assay: Induction of apoptosis in human HepG2 cells assessed as early apoptotic cells at 5 uM incubated for 24 hrs by annexin-V FITC and PI staining based flow cytometry analysis (reference value: 3.7%); type: functional
[15] = system: PC-3; assay: Antiproliferative activity against human PC-3 cells incubated for 72 hrs by CCK8 assay; type: functional, cell-based; details: PC-3, 72 h
[16] = system: HepG2; assay: Induction of apoptosis in human HepG2 cells assessed as late apoptotic cells at 5 uM incubated for 24 hrs by annexin-V FITC and PI staining based flow cytometry analysis (reference value: 2.3%); type: functional
[17] = system: MDA-MB-231; assay: Antiproliferative activity against human MDA-MB-231 cells incubated for 72 hrs by CCK8 assay; type: functional, cell-based
[18] = Antiproliferative activity against human CCL-226 cells incubated for 72 hrs by CCK8 assay; type: toxicity, cell-based
[19] = Antiproliferative activity against human HL7702 cells incubated for 72 hrs by CCK8 assay; type: toxicity, cell-based; details: HL7702 (L02) cells
[20] = system: HepG2; assay: Upregulation of gamma-H2AX level in human HepG2 cells incubated for 4 hrs by Western blotting analysis; type: functional, cell-based
[21] = system: HepG2; assay: Antiproliferative activity against human HepG2 cells incubated for 72 hrs by CCK8 assay; type: functional, cell-based
[22] = system: A549; assay: Antiproliferative activity against human A549 cells incubated for 72 hrs by CCK8 assay; type: functional, cell-based; details: A549, 72 h
[23] = species on record: Homo sapiens; assay: Selectivity index, ratio of IC50 for human CCL-226 cells to IC50 for human HeLa cells
[24] = target: T1, DNA topoisomerase 2-alpha; assay: Inhibition of human topoisomerase 2-alpha assessed as reduction in relaxation of pBR322 DNA at 25 uM measured after 30 mins by agarose gel electrophoresis method relative to control
[25] = Selectivity index, ratio of IC50 for human HL-7702 cells to IC50 for human A549 cells; type: toxicity; details: HL-7702 cells versus A549 cells, read-out: Ratio IC50
[26] = Selectivity index, ratio of IC50 for human HL-7702 cells to IC50 for human HeLa cells; type: toxicity; details: HL-7702 cells versus HeLa cells, read-out: Ratio IC50
[27] = species on record: Homo sapiens; assay: Selectivity index, ratio of IC50 for human CCL-226 cells to IC50 for human HepG2 cells
[28] = target: T1, DNA topoisomerase 2-alpha; assay: Inhibition of human topoisomerase 2-alpha assessed as reduction in relaxation of pBR322 DNA measured after 30 mins by agarose gel electrophoresis method
[29] = Selectivity index, ratio of IC50 for human HL-7702 cells to IC50 for human PC-3 cells; type: toxicity; details: HL-7702 cells versus PC-3 cells, read-out: Ratio IC50
[30] = Selectivity index, ratio of IC50 for human BEAS-2B cells to IC50 for human HCT-116 cells; type: toxicity; details: BEAS-2B cells versus HCT-116 cells, read-out: Ratio IC50
[31] = Selectivity index, ratio of IC50 for human HL-7702 cells to IC50 for human HepG2 cells; type: toxicity; details: HL-7702 cells versus HepG2 cells, read-out: Ratio IC50
[32] = Selectivity index, ratio of IC50 for human BEAS-2B cells to IC50 for human MDA-MB-231 cells; type: toxicity; details: BEAS-2B cells versus MDA-MB-231 cells, read-out: Ratio IC50
[33] = species on record: Homo sapiens; assay: Selectivity index, ratio of IC50 for human CCL-226 cells to IC50 for human MDA-MB-231 cells
[34] = Selectivity index, ratio of IC50 for human HL-7702 cells to IC50 for human HCT-116 cells; type: toxicity; details: HL-7702 cells versus HCT-116 cells, read-out: Ratio IC50
[35] = Selectivity index, ratio of IC50 for human BEAS-2B cells to IC50 for human HeLa cells; type: toxicity; details: BEAS-2B cells versus HeLa cells, read-out: Ratio IC50
[36] = species on record: Homo sapiens; assay: Selectivity index, ratio of IC50 for human CCL-226 cells to IC50 for human PC-3 cells
[37] = species on record: Homo sapiens; assay: Selectivity index, ratio of IC50 for human CCL-226 cells to IC50 for human A549 cells
[38] = Selectivity index, ratio of IC50 for human BEAS-2B cells to IC50 for human HepG2 cells; type: toxicity; details: BEAS-2B cells versus HepG2 cells, read-out: Ratio IC50
[39] = Selectivity index, ratio of IC50 for human BEAS-2B cells to IC50 for human PC-3 cells; type: toxicity; details: BEAS-2B cells versus PC-3 cells, read-out: Ratio IC50
[40] = Selectivity index, ratio of IC50 for human BEAS-2B cells to IC50 for human A549 cells; type: toxicity; details: BEAS-2B cells versus A549 cells, read-out: Ratio IC50
[41] = target: DNA topoisomerase 2-beta (Homo sapiens, UniProt Q02880); assay: Inhibition of human topoisomerase 2-beta assessed as reduction in relaxation of pBR322 DNA measured after 30 mins by agarose gel electrophoresis method
DNA topoisomerase 2-beta, sequence (Q02880 whole entry): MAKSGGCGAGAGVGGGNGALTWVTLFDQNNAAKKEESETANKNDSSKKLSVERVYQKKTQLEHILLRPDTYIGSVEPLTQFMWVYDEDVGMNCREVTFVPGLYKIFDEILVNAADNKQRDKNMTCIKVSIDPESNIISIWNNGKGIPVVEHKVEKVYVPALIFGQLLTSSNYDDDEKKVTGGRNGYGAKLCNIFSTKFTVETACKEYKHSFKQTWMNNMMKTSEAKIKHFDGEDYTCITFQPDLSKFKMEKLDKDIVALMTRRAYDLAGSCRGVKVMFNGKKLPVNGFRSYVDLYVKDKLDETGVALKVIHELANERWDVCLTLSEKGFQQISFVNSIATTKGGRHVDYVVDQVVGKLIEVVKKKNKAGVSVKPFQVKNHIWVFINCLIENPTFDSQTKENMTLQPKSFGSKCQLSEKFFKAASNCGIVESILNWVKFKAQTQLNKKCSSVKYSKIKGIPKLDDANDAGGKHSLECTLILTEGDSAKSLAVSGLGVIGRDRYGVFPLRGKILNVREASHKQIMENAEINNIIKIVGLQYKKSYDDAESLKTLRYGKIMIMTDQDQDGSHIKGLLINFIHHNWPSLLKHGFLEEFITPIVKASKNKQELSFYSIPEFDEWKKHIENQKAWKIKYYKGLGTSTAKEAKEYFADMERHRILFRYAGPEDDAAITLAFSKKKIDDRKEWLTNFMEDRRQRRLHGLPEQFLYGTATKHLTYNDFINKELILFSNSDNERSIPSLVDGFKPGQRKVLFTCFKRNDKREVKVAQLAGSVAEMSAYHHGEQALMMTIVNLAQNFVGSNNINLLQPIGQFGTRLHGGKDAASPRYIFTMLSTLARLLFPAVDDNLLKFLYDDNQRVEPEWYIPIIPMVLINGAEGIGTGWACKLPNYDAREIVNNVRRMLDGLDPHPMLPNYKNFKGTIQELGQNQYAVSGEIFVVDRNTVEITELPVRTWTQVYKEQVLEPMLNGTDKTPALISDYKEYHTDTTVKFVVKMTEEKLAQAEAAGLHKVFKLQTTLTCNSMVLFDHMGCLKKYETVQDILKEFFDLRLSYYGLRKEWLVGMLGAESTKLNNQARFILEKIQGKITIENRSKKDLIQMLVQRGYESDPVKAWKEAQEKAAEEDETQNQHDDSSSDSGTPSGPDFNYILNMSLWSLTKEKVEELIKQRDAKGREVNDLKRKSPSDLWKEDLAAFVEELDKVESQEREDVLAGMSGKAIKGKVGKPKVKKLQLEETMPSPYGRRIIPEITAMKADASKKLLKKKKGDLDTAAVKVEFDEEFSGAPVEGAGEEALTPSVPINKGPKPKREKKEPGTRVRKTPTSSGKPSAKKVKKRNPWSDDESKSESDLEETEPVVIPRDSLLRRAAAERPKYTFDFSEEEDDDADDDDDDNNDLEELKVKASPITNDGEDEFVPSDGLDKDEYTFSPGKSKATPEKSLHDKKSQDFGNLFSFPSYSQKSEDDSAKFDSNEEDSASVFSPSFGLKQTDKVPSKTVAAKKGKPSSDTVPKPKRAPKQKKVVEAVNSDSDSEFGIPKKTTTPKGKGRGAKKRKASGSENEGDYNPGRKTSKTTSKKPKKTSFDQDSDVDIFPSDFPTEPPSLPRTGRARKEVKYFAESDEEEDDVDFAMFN

[42] = species on record: Homo sapiens; assay: Selectivity index, ratio of IC50 for human CCL-226 cells to IC50 for human HCT-116 cells
[43] = Selectivity index, ratio of IC50 for human HL-7702 cells to IC50 for human MDA-MB-231 cells; type: toxicity; details: HL-7702 cells versus MDA-MB-231 cells, read-out: Ratio IC50
[44] = target: T1, DNA topoisomerase 2-alpha; assay: Inhibition of human topoisomerase 2-alpha using pBR322 DNA as substrate incubated for 1 hr in presence of ATP by malachite green phosphate method
[45] = target: T1, DNA topoisomerase 2-alpha; assay: Inhibition of human topoisomerase 2-alpha using pBR322 DNA as substrate incubated for 30 mins in presence of 0.5 to 5 mM ATP (reference value: 2.9 microM)

| IC50 [4] | IC50 [12] | inhibition [13] | IC50 [15] | IC50 ([17]; Homo sapiens, MDA-MB-231, 72 h) | IC50 ([21]; Homo sapiens, HepG2, 72 h) | IC50 [22] | Ratio IC50 [23] | inhibition [24] | Ratio IC50 [27] | IC50 [28] | Structure (SMILES) | inhibition [3] | IC50 at 72 h [8] | IC50 at 72 h [18] | IC50 at 72 h [19] | Activity [20] | selectivity ratio [25] | selectivity ratio [26] | selectivity ratio [29] | selectivity ratio [30] | also measured |
| --- | --- | --- | --- | --- | --- | --- | --- | --- | --- | --- | --- | --- | --- | --- | --- | --- | --- | --- | --- | --- | --- |
| 1.9 µM | 2.1 µM | 82.6% and 76.1% | 2.3 µM | 4.1 µM | 2.4 µM | 4.1 µM | > 9.2 | 71.2% and 61.6% | > 9.2 | 16.6 µM | O=C(/C=C/c1ccccc1)Nc1ccc(/C=C/c2cc(O)cc(O)c2)cc1 |  | > 50 µM | > 50 µM | 37.8 µM |  | > 9.2 | > 9.2 | > 9.2 | > 9.2 | selectivity ratio [31]: > 9.2; selectivity ratio [32]: > 9.2; Ratio IC50 [33]: > 9.2; IC50 ([17]; mda-mb-231): 3.6 µM; selectivity ratio [34]: > 9.2; selectivity ratio [35]: > 9.2; Ratio IC50 [36]: > 9.2; Ratio IC50 [37]: > 9.2; selectivity ratio [38]: > 9.2; selectivity ratio [39]: > 9.2; selectivity ratio [40]: > 9.2; IC50 [41]: 195 µM; Ratio IC50 [42]: > 9.2; selectivity ratio [43]: > 9.2; IC50 ([21]; hepg2): 2.9 µM |
| 0.5 µM | 0.6 µM | 81% | 0.9 µM | 0.8 µM | 0.7 µM | 1 µM | > 28.1 | 86.2% | > 28.1 | 3.3 µM | O=C(/C=C/c1ccccc1)Nc1ccc(-c2ccc3cc(O)ccc3c2)cc1 | inactive | 26.9 µM | > 50 µM | > 50 µM | inactive | > 28.1 | > 28.1 | > 28.1 | > 28.1 | Activity [5]: inactive; selectivity ratio [31]: > 28.1; selectivity ratio [32]: > 28.1; Ratio IC50 [33]: > 28.1; selectivity ratio [34]: > 28.1; inhibition [44]: Dose-Dependent Effect; selectivity ratio [35]: > 28.1; Ratio IC50 [36]: > 28.1; Ratio IC50 [37]: > 28.1; selectivity ratio [38]: > 28.1; IC50 [45]: 8.6 µM; selectivity ratio [39]: > 28.1; selectivity ratio [40]: > 28.1; IC50 [41]: 17.2 µM; Ratio IC50 [42]: > 28.1; selectivity ratio [43]: > 28.1 |

| Structure (SMILES) | IC50 [4] | IC50 [12] | inhibition [13] | IC50 [15] | IC50 ([17]; Homo sapiens, MDA-MB-231, 72 h) | IC50 ([21]; Homo sapiens, HepG2, 72 h) | IC50 [22] | Ratio IC50 [23] | inhibition [24] | Ratio IC50 [27] | IC50 [28] | inhibition [3] | IC50 at 72 h [8] | IC50 at 72 h [18] | IC50 at 72 h [19] | Activity [20] | selectivity ratio [25] | selectivity ratio [26] | selectivity ratio [29] | selectivity ratio [30] | also measured |
| --- | --- | --- | --- | --- | --- | --- | --- | --- | --- | --- | --- | --- | --- | --- | --- | --- | --- | --- | --- | --- | --- |
| COc1cc([C@@H]2c3cc4c(cc3[C@@H](O[C@@H]3O[C@@H]5CO[C@@H](C)O[C@H]5[C@H](O)[C@H]3O)[C@H]3COC(=O)[C@H]23)OCO4)cc(OC)c1O [ETOPOSIDE] | 1.5 µM | 2.4 µM | 43.3% | 3 µM | 5.6 µM | 8.1 µM | 15.1 µM |  |  |  |  | inactive | 21 µM | 20.8 µM | 39.1 µM | Active |  |  |  |  | viability at 5 µM [1]: 76.9%; mortality at 168 h [2]: 33.3%; Activity ([5]; filed as activator): Active; Activity [6]: 73.7%; Activity [7]: 25.2%; Activity [9]: 0.6%; Activity [10]: Toxic; Activity [11]: 1.1%; Activity [14]: 10.7%; Activity [16]: 11.8% |
